For orientation: IC50 means the point on the concentration scale where inhibition reaches its midpoint.

Structures are written as SMILES.

Consider three compounds from patent US7947686B2, “Substituted pyrazolo[4,3-c]pyridine derivatives active as kinase inhibitors” (Nerviano Medical Sciences S.r.l., priority 2005, dated 2011).

The target in test [1] is T1, IGF1R (Homo sapiens, UniProt P08069). The experiment in a line: Biochemical assay for inhibitors of IGF-1R kinase activity (trans-phosphorylation, 33P-ATP, Dowex). On the set-up: amino acid residues 960-1367 of precursor protein; made in house; host or cells: H5 insect cells (baculovirus; virus produced in Sf21 cells). The conditions noted are these: read-out: IGF1R IC50 (μM) Biochemical assay. Here is the method:
Human cDNA was used as template for amplification by polymerase chain reaction (PCR) of the predicted cytoplasmic portion of IGF-1R (amino acid residues 960-1367 of precursor protein; see NCBI Entrez Protein Accession #P08069) which includes the entire kinase domain. PCR was conducted using the forward primer sequence 5′-[…]-3′ (SEQ ID NO:1) and the reverse primer sequence 5′-[…]-3′ (SEQ ID NO:2). In order to facilitate subsequent cloning steps, both primers comprise a BamHI restriction endonuclease site sequence. This PCR product was cloned in frame using BamHI sticky ends into a transfer vector for the baculovirus expression system, pVL1392 (Pharmingen), previously modified by insertion into the pVL1392 multiple cloning site of sequences encoding Glutathione S-transferase (GST) fusion protein, PreScission protease cleavage site and partial MCS cassette derived from the pGex-6P plasmid (Amersham BioSciences). Insertion of the IGF-1R PCR product described above into the pGex-6P derived BamHI site of the modified pVL1392 vector results in an open reading frame corresponding to the pGEX-6P GST protein and PreScission peptide fused with the human IGF-1R cytoplasmic domain. In order to obtain fusion protein, Sf21 insect cells (Invitrogen) are cotransfected with 2 microg of purified plasmid and 1 microg of virus DNA (BaculoGold™ Transfection Kit, Pharmingen), as described in the Baculovirus Instruction manual (Pharmingen). A first amplification of the virus is performed using 600 microL of cotransfected virus on 6×10^6 Sf21 in a monolayer culture, in 12 mL of medium (TNM-FH Grace's medium—Pharmingen). After 3 days the medium is collected, centrifuged and transferred to a sterile tube. A second amplification is prepared with the same method using 2 mL on 3×10^7 cells, diluted in 40 mL of medium. For the third amplification of virus, 1 mL of supernatant from the second round are used per 3×10^7 cells diluted in 40 mL of medium. […]
The inhibitory activity of putative kinase inhibitors and the potency of selected compounds were determined using a trans-phosphorylation assay. […]
Target sequence in this assay (P08069 960-1367): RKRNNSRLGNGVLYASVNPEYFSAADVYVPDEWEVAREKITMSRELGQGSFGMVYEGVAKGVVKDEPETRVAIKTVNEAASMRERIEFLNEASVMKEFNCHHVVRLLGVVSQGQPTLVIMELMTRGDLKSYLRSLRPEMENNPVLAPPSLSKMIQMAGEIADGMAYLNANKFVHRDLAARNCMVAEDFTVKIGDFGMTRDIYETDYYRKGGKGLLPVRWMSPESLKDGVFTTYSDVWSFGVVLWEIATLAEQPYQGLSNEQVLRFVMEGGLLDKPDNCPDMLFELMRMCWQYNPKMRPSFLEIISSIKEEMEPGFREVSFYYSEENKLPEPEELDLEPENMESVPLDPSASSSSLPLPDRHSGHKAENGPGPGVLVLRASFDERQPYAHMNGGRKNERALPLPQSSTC

In test [2] the target is T1, IGF1R. The experiment in a line: Western blot analysis of receptor phosphorylation following stimulation with IGF-1 in MCF-7 human breast cancer cells. Type of test: cell-based. Also on record: endogenous in cells; host or cells: MCF-7 (ATCC#HTB-22). The following applies: starved MCF-7 cells, increasing concentrations of compound, then 10 nM IGF1; pIGF1R band, FIG. 1. Here is the method:
[formula] where νb is the baseline velocity, ν is the observed reaction velocity, ν0 is the velocity in the absence of inhibitors, and [I] is the inhibitor concentration. Cell-Based Assays for Inhibitors of IGF-1R Kinase Activity Western Blot Analysis of Receptor Phosphorylation Following Stimulation with IGF-1 in MCF-7 Human Breast Cancer Cells
MCF-7 cells (ATCC#HTB-22) were seeded in 12-well tissue culture plates at 2×10^5 cells/well in E-MEM medium (MEM+Earle's BSS+2 mM glutamine+0.1 mM non-essential amino acids)+10% FCS, and incubated overnight at 37° C., 5% CO2, 100% relative humidity. Cells were then starved by replacing E-MEM+10% FCS with E-MEM+0.1% BSA, and incubating overnight. After this incubation, wells were treated with desired concentrations of compound for 1 hour at 37° C., and were then stimulated with 10 nM recombinant human IGF-1 (Invitrogen, Carlsbad, Calif., USA) for 10 minutes at 37° C. Cells were then washed with PBS and lysed in 100 microL/well cell lysis buffer (M-PER Mammalian Protein Extraction Reagent [Product #78501, Pierce, Rockford, Ill., USA]+10 mM EDTA+Protease inhibitor cocktail [Sigma-Aldrich product #P8340]+phosphatase inhibitor cocktail [Sigma-Aldrich products #P2850+#P5726]). Cell lysates were cleared by centrifugation at 10,000×g for 5 minutes, and 10 microg/lane of cleared lysate protein were run on NuPAGE gels (NuPAGE 4-12% 10-lane Bis-Tris gels, Invitrogen) with MOPS running buffer, then transferred onto Hybond-ECL nitrocellulose filters (Amersham Biosciences, Little Chalfont, Buckinghamshire, UK) using Mini PROTEAN II chambers (Bio-Rad Laboratories, Hercules, Calif., USA). […]
Target sequence in this assay (P08069 31-1367): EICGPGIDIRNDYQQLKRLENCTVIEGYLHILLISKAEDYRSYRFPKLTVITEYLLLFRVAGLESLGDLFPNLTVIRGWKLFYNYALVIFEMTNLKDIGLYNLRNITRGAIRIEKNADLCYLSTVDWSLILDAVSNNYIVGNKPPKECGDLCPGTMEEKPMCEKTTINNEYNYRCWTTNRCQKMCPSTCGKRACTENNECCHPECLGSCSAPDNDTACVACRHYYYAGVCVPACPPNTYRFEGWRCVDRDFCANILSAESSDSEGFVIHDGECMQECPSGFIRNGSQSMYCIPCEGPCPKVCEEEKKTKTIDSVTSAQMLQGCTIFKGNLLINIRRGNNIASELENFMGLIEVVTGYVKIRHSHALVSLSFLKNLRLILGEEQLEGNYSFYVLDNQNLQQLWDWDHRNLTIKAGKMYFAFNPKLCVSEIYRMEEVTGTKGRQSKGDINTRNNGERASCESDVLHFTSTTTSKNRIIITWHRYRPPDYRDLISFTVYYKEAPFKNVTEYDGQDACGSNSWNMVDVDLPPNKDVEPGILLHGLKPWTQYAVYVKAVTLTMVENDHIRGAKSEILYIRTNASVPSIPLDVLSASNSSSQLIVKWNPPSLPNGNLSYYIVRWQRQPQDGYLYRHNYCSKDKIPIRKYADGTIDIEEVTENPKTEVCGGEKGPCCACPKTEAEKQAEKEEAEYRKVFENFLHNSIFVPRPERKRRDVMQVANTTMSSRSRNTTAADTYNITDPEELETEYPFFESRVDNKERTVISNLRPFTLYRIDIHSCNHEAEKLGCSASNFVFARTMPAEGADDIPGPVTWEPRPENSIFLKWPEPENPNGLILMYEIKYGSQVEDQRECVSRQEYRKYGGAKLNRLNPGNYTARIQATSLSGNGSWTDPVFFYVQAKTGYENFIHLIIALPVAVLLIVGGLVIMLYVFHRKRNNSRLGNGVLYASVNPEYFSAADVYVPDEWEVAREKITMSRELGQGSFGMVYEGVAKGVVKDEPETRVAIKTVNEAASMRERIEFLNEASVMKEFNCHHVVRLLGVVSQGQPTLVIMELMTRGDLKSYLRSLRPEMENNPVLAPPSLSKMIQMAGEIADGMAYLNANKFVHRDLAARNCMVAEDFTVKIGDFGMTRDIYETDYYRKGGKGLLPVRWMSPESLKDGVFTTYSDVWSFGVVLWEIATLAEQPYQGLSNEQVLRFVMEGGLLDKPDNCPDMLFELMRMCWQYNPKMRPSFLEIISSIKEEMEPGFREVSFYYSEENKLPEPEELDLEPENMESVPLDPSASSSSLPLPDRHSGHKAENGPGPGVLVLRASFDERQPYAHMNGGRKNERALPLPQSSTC

Test [3] has as its system IGF1-induced S6 phosphorylation. In words: Growth factor induced S6 ribosomal protein phosphorylation in primary human fibroblasts. The format is cell-based. The conditions noted are these: normal human dermal fibroblasts (NHDF), 10 nM IGF-1; read-out: Inhibition of IGF1-induced S6 phosphorylation IC50. Here is the method: Growth Factor Induced […] Ribosomal Protein Phosphorylation in Primary Human Fibroblasts.
Phosphorylation of S6 ribosomal protein in response to growth factor stimulation of normal human dermal fibroblasts (NHDF) was used to assess compound potency in inhibiting IGF-1 induced signal transduction in cells, and selectivity towards EGF and PDGF stimulus. NHDF cells obtained from PromoCell (Heidelberg, Germany), were maintained at 37° C. in a humidified atmosphere with 5% CO2 in complete Fibroblast Growth Medium (PromoCell). For assay, NHDF were seeded in 384-well tissue culture plates (clear- and flat-bottomed black plates; Matrix Technologies Inc., Hudson, N.H., USA) at a density of 5000 cells/well in serum-free medium containing 0.1% bovine serum albumin (BSA) and incubated for 5 days. Starved cells were treated for 1 hour with desired doses of compounds and then stimulated for a further 2 hours with either 10 nM IGF-1 (Invitrogen Corp., CA, USA), 10 nM EGF (Gibco BRL, USA) or 1 nM PDGF-B/B (Roche Diagnostics GmbH, Germany). Cells were then fixed in PBS/3.7% paraformaldehyde for 20 minutes at room temperature, washed ×2 with PBS, and permeabilized with PBS/0.3% Triton X-100 for 15 minutes. Wells were then saturated with PBS/1% non-fat dry milk (Bio-Rad Laboratories, Hercules, Calif., USA) for 1 hour, and then probed for 1 hour at 37° C. with anti-phospho-S6 (Ser 235/236) antibody (Cell Signaling Technology, Beverly, Mass., USA, cat. #2211) at 1/200 dilution in PBS/1% milk/0.3% Tween 20. […] Fluorescence images in the DAPI and Cy5™ channels were automatically acquired, stored and analysed using a Cellomics ArrayScan™ IV instrument (Cellomics, Pittsburgh, USA); the Cellomics Cytotoxicity Algorithm was used to quantify cytoplasmic fluorescence associated with phospho-S6 (Cy5™ signal parameter: “Mean Lyso Mass-pH”) for each cell in 10 fields/well, and eventually expressed as a mean population value. […]

For the compound `CN1CCN(c2ccc(C(=O)Nc3n[nH]c4c3CN(S(=O)(=O)c3cc(F)cc(F)c3)CC4)c(NCc3ccco3)c2)CC1` [Compound 52, N-[5-(3,5-Difluoro-benzenesulfonyl)-4,5,6,7-tetrahydro-1H-pyrazolo[4,3-c]pyridin-3-yl]-2-[(furan-2-ylmethyl)-amino]-4-(4-methyl-piperazin-1-yl)-benzamide], the IC50 on IGF1R [1] was 0.055 µM; in test [3] it was 0.64 µM. The “inhibition of IGF1R auto-phosphorylation” value against IGF1R [2] is recorded as “inhibition of IGF1-induced IGF1R auto-phosphorylation”.

Turning to `CN1CCN(c2ccc(C(=O)Nc3n[nH]c4c3CN(S(=O)(=O)c3cc(F)cc(F)c3)CC4(C)C)c(NC(=O)C3CCOCC3)c2)CC1` [Compound 293, Tetrahydro-pyran-4-carboxylic acid [2-[5-(3,5-difluoro-benzenesulfonyl)-7,7-dimethyl-4,5,6,7-tetrahydro-1H-pyrazolo[4,3-c]pyridin-3-ylcarbamoyl]-5-(4-methyl-piperazin-1-yl)-phenyl]-amide], the IC50 at IGF1R [1] was determined as 0.14 µM; in test [3] it was 0.28 µM. Moreover, the “inhibition of IGF1R auto-phosphorylation” value against IGF1R [2] was “inhibition of IGF1-induced IGF1R auto-phosphorylation”.

`CN1CCN(c2ccc(C(=O)Nc3n[nH]c4c3CN(S(=O)(=O)c3cc(F)cc(F)c3)CC4)c(NC(=O)c3ccc[nH]3)c2)CC1` [Compound 28, 1H-Pyrrole-2-carboxylic acid [2-[5-(3,5-difluoro-benzenesulfonyl)-4,5,6,7-tetrahydro-1H-pyrazolo[4,3-c]pyridin-3-ylcarbamoyl]-5-(4-methyl-piperazin-1-yl)-phenyl]-amide]: the IC50 at IGF1R [1] turned out to be 0.049 µM; in test [3], 0.08 µM. Moreover, the “inhibition of IGF1R auto-phosphorylation” value against IGF1R [2] is “inhibition of IGF1-induced IGF1R auto-phosphorylation”.
